In US12679836B2, “4H-pyrrolo[3,2-c]pyridin-4-one compounds” (Bayer Aktiengesellschaft, priority 2019, dated 2026):

Experiments:
Ba/F3-EGFR-WT cells = Ba/F3-EGFR-WT cells (Homo sapiens, UniProt P00533); test: Ba/F3 cell survival assay (Cell Titer-Glo), WT EGFR; type: cell-based; details: without IL-3, with 10 ng/mL EGF, 48 h; read-out: BA/F3 (wild type) IC50
Summary of the method: (§1)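 Ba/F3 cells stably expressing WT EGFR or EGFR-insSVD from retroviral transduction were grown without IL-3 on 10 ng/mL EGF. Cells were plated at 4000 cells/well, treated with compound for 48 h at 37° C, and viability was read by CellTiter-Glo luminescence.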

Ba/F3-EGFR-insSVD cells = Ba/F3-EGFR-insSVD cells (Homo sapiens, UniProt P00533, DUP768-770, cells depend on it); test: Ba/F3 cell survival assay (Cell Titer-Glo), EGFR-insSVD; type: cell-based; details: without IL-3, with 10 ng/mL EGF, 48 h; read-out: BA/F3 (insSVD) IC50
Summary of the method: as §1

[1] = molecular target: Ba/F3-ERBB2-A775_G776insYVMA cells (Homo sapiens, UniProt P04626, DUP772-775, cells depend on it); test: Ba/F3 cell survival assay, ERBB2 A775_G776insYVMA; type: cell-based; details: without IL-3, without EGF, 48 h; read-out: BA/F3 (ERBB2 A775_G776 insYVMA) IC50
Protocol: (§2) 293T cells from ATCC were transfected with pBABEpuro expression constructs for mutant EGFR (V769_D770insASV, D770_N771insNPG, N771_P772insH, H773_V774insNPH, E746_A750del, L858R, D770_N771insSVD C797S, E746_A750del C797S, L858R C797S, L861Q) or mutant ERBB2 (A775_G776insYVMA) and pCL-Eco packaging vector using Fugene-6 transfection reagent from Promega. Plates were incubated at 37° C. for 48 h. Retrovirus was harvested by filtering the media supernatant through a 0.45 μm filter.
(§3) Ba/F3 cells purchased from DSMZ were grown in RPMI+10% FBS+10 ng/mL IL-3 and infected with filtered retroviral supernatant at a 1:2 dilution. Polybrene was added to a concentration of 8 μg/mL, plates were spun for 90 min, and incubated overnight at 37° C. 2 μg/mL puromycin was added to the infected cells 24 h after infection and cells were continually grown in the presence of puromycin and 10 ng/mL IL-3. Following stably expressing Ba/F3 cell lines were generated: Ba/F3-EGFR-V769_D770insASV, Ba/F3-EGFR-D770_N771insNPG, Ba/F3-EGFR-N771_P772insH, Ba/F3-EGFR-H773_V774insNPH, Ba/F3-EGFR-E746_A750del, Ba/F3-EGFR-L858R, Ba/F3-EGFR-D770_N771 insSVD C797S, Ba/F3-EGFR-E746_A750del C797S, Ba/F3-EGFR-L858R C797S, Ba/F3-EGFR L861Q and Ba/F3-ERBB2-A775_G776insYVMA (Ba/F3-vector-control).
(§4) For cell survival assays, Ba/F3 cells were grown to a density of 1-2 million cells per mL, spun down and resuspended in media without IL-3, and replated at a concentration 200,000-500,000 cells per mL. The cells ectopically expressing WT EGFR plated with 10 ng/mL Millipore Culture grade EGF and Ba/F3 cells containing mutant EGFR or Mutant ERBB2 were cultivated without EGF. The cells ectopically expressing pBABEpuro empty vector were plated with 10 ng/mL IL-3.
(§5) 2 days later, cells were plated in 50 μL in a 384 well plate at a concentration of 4000 cells per well for cells assayed in the absence of IL-3 and 2000 cells per well for cells assayed in the presence of IL-3. 100 nL of compound was added to each well using a 100 nL pin head, and plates were incubated at 37° C. for 48 h.
(§6) Cell viability was measured by adding 20 μL of Cell Titer-Glo Luminescent Cell Viability Reagent diluted 1:3 in PBS. Plates were sealed with Perkin Elmer Top-Seal, inverted several times to mix, and immediately centrifuged at 1000 rpm for 2 min. Plates were incubated in low light conditions for 8-10 min and luminescence was measured.

[2] = molecular target: T1, EGFR with insertion of SVD between D770 and N771 (EGFR ins SVD) (Homo sapiens, UniProt P00533, DUP768-770); test: Exon20-Mutant-EGFR(D770_N771insSVD) kinase assay (TR-FRET); type: biochemical; details: 2 mM ATP, several values per example where printed
T1 construct: made in house; host or cells: Sf9 insect cells (baculovirus)

PC9 cells (EGFRex19del) = test: PC9 proliferation assay (Cell Titer Glo); type: cell-based; details: Homo sapiens, PC-9, 72 h
Protocol: Cellular Data Description (PC9 Cells, EGFRex19del)
(§7) PC9 cells were purchased from ATCC. 400 PC9 cells per well were seeded in growth medium (DMEM, 10% FCS) in a 384-well plate (CORNING #3571). Seed reference plate for time zero determination on the same day. All plates were incubated overnight at 37° C. After 24 hours, test compound were added in 7-step dilution using HP Compound printer and incubated at 37° C. for 72 h. After 3 days, 30 μL/well CTG solution (Promega Cell Titer Glo solution; catalog # G755B and G756B) were added to each well, incubated for 30 minutes and the plate were read on PheraStar. Proliferation is calculated after subtracting time zero luminescence values from day 4 values and comparing to untreated wells. The IC50 values were determined using the four parameter fit.

Bub1 = molecular target: T2, Bub1 (Homo sapiens, UniProt O43683); test: Bub1 TR-FRET high ATP kinase assay; type: biochemical; details: Bub1 high ATP (2 mM) IC50 [mol/l], 2 mM ATP
T2 construct: catalytic domain of human Bub1 (amino acids 704-1085); His6 (N); made in house; host or cells: Hi5 insect cells
Summary of the method: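 Recombinant His6-tagged human Bub1 catalytic domain (aa 704-1085), from Hi5 insect cells, phosphorylating a biotinylated peptide substrate at high ATP concentration. TR-FRET read-out.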

[3] = tested on: HCC-827 cells (EGFRex19del); test: HCC-827 proliferation assay (Cell Titer Glo); type: cell-based; details: Homo sapiens, HCC827, 72 h
Protocol: Cellular Data Description (HCC-827 Cells, EGFRex19del)
as §7, with “HCC-827 cells” for “PC9 cells”, “[…]” for “400 PC9”, “medium (RPM11640,” for “medium (DMEM,”, “wells.” for “wells. The IC50 values were determined using the four parameter fit.”
The IC50 values were determined using the four parameter fit.

Ba/F3-EGFR-L858R cells = Ba/F3-EGFR-L858R cells (Homo sapiens, UniProt P00533, L858R, cells depend on it); test: Ba/F3 cell survival assay, EGFR L858R; type: cell-based; details: without IL-3, without EGF, 48 h; read-out: BA/F3 (EGFR L858R) IC50
Protocol: as §2, §3, §4, §5, §6

Ba/F3-EGFR L861Q cells = Ba/F3-EGFR L861Q cells (Homo sapiens, UniProt P00533, L861Q, cells depend on it); test: Ba/F3 cell survival assay, EGFR L861Q; type: cell-based; details: without IL-3, without EGF, 48 h; read-out: BA/F3 (EGFR L861Q) IC50
Protocol: as §2, §3, §4, §5, §6

[4] = molecular target: Ba/F3-EGFR-E746_A750del cells (Homo sapiens, UniProt P00533, DEL746-750, cells depend on it); test: Ba/F3 cell survival assay, EGFR E746_A750del; type: cell-based; details: without IL-3, without EGF, 48 h; read-out: BA/F3 (EGFR E746_A750del) IC50
Protocol: as §2, §3, §4, §5, §6

Ba/F3-EGFR-insSVD cells, sequence (P00533 with tags, fused parts or gaps DUP768-770): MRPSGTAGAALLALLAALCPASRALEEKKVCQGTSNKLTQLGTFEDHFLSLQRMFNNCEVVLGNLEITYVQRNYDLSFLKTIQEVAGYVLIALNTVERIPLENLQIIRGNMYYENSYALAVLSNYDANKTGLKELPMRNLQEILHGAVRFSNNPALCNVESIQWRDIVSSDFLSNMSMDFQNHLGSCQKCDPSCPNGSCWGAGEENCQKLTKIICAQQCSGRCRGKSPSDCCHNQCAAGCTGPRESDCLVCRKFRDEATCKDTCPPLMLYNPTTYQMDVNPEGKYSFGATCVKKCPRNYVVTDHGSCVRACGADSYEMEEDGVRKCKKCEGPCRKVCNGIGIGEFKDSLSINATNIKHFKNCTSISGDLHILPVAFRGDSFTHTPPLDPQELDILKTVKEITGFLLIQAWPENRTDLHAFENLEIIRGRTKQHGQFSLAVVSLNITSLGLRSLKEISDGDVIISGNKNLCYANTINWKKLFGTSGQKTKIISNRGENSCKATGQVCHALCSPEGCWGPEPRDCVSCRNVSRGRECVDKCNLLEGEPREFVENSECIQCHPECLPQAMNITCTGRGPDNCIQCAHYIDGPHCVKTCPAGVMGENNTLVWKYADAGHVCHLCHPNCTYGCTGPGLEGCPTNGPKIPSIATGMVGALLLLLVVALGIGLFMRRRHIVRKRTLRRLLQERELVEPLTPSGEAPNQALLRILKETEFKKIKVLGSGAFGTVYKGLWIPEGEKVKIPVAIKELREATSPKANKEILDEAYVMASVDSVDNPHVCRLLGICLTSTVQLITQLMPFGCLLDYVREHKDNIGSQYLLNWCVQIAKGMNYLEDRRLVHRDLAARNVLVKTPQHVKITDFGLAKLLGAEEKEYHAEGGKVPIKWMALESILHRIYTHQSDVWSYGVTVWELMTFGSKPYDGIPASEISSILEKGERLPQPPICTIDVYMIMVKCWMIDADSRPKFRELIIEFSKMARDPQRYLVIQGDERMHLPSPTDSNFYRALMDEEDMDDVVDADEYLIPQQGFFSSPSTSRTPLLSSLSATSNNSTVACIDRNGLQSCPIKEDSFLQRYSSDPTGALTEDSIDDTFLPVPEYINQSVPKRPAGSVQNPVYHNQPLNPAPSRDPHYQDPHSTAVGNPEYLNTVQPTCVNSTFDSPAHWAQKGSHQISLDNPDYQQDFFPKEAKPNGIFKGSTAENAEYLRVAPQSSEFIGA
T1 sequence (P00533 with tags, fused parts or gaps DUP768-770): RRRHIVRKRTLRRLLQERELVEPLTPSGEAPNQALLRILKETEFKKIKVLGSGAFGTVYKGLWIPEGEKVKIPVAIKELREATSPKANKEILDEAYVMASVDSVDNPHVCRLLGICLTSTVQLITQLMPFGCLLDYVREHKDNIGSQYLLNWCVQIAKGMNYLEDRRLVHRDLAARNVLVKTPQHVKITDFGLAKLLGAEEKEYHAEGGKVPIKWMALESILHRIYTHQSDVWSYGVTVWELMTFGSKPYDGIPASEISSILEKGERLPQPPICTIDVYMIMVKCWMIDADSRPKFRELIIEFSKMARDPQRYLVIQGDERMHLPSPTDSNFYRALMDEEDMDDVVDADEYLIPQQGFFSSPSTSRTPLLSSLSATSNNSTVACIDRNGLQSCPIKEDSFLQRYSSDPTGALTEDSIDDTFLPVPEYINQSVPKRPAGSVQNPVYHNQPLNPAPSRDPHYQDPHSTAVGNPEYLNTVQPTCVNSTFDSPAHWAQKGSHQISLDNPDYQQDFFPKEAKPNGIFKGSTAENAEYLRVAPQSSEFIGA
T2 sequence (O43683 704-1085): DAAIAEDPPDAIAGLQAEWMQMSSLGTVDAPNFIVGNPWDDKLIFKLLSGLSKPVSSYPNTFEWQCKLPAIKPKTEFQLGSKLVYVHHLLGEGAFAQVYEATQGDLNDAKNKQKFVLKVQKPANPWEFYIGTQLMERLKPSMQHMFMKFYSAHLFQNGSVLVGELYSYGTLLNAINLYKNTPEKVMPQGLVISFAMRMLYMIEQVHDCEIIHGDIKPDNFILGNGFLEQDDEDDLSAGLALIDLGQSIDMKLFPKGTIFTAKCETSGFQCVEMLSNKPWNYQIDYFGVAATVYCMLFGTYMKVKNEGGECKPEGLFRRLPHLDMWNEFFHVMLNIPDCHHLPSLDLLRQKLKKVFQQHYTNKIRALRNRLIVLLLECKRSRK
Ba/F3-EGFR-WT cells, sequence (P00533 whole entry, stated change not applied): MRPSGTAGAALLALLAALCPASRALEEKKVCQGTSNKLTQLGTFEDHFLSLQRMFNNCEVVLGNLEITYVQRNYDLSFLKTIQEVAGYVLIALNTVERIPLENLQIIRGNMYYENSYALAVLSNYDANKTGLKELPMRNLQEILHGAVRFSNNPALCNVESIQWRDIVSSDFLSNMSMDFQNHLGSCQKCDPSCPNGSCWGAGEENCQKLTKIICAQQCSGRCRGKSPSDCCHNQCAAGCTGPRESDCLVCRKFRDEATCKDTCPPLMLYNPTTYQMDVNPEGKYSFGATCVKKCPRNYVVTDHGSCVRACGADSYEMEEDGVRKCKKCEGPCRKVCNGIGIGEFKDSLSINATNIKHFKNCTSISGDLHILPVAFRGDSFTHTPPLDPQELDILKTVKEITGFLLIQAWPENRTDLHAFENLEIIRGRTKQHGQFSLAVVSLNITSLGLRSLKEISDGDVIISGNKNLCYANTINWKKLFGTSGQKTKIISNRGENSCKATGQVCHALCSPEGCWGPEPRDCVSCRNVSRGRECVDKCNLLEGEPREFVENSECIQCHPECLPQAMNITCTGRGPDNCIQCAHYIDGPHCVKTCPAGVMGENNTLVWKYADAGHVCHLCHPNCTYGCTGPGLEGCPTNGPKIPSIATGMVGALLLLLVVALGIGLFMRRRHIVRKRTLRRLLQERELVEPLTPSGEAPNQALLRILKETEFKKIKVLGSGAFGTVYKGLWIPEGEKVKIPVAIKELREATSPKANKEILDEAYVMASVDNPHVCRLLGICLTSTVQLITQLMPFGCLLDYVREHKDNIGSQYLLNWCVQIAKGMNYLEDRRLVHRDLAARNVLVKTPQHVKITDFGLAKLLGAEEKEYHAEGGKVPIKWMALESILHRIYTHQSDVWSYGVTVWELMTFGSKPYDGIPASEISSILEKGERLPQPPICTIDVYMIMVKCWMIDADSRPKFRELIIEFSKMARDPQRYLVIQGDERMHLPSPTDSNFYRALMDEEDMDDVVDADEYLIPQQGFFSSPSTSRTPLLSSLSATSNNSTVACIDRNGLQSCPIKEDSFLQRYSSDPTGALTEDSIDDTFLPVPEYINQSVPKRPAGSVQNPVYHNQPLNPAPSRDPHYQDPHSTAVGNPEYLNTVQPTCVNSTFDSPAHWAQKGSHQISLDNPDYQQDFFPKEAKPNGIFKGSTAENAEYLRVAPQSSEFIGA
Ba/F3-ERBB2-A775_G776insYVMA cells, sequence (P04626 with tags, fused parts or gaps DUP772-775): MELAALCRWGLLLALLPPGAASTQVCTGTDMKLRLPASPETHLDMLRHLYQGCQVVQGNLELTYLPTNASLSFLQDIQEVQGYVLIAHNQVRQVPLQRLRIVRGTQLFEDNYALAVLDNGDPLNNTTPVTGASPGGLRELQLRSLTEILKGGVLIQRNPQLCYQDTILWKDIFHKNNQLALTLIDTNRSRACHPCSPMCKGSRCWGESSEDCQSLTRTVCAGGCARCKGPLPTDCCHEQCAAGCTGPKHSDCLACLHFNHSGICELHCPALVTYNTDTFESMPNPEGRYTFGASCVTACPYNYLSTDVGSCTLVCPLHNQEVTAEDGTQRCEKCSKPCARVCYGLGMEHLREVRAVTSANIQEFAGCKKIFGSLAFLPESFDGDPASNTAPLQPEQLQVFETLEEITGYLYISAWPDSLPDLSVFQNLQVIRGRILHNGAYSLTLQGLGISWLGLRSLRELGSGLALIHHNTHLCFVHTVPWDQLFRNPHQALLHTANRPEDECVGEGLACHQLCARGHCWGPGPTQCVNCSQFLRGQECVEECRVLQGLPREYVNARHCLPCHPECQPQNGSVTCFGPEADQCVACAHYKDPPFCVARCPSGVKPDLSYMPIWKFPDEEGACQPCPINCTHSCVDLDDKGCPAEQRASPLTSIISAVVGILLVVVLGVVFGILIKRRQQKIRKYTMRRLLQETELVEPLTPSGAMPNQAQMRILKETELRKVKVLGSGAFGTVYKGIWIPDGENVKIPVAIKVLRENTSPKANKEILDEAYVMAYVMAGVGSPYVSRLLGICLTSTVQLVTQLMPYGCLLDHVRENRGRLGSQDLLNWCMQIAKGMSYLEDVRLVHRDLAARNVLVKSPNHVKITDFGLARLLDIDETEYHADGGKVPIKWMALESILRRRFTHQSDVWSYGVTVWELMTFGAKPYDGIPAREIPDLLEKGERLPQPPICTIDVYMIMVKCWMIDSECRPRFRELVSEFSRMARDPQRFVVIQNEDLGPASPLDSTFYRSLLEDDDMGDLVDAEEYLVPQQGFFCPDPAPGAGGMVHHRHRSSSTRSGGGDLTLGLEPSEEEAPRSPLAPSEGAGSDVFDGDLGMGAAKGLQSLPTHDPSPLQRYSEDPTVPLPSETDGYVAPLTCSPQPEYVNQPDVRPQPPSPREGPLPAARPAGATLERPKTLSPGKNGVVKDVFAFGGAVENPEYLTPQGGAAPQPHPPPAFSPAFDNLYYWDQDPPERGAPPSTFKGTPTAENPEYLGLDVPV

Row | Structure (SMILES) | GI50 (Ba/F3-EGFR-WT cells) | GI50 (Ba/F3-EGFR-insSVD cells) | GI50 [1] | mutEGFR (D770_N771insSVD) kinase assay IC50 [2] | IC50 (PC9 cells (EGFRex19del)) | IC50 (Bub1) | IC50 [3] | GI50 (Ba/F3-EGFR-L858R cells) | GI50 (Ba/F3-EGFR L861Q cells) | GI50 [4]
1 | COc1c(F)cccc1Nc1c(-c2ccncc2OCC2COCCO2)[nH]c2c1C(=O)NCC2 (single isomer, unassigned) [Example 6, 2-{3-[(1,4-dioxan-2-yl)methoxy]pyridin-4-yl}-3-(3-fluoro-2-methoxyanilino)-1,5,6,7-tetrahydro-4H-pyrrolo[3,2-c]pyridin-4-one] | 0.785 µM | 0.0503 µM | 0.0318 µM | 0.0001 µM | 0.00194 µM | 6.31 µM | < 0.003 µM | – | – | –
2 | CCc1c(Cl)cccc1Nc1c(-c2ccncc2OCC2CN(C)CCO2)[nH]c2c1C(=O)NCC2 (centres unmarked) [Example 29, 3-(3-chloro-2-ethylanilino)-2-{3-[(4-methylmorpholin-2-yl)methoxy]pyridin-4-yl}-1,5,6,7-tetrahydro-4H-pyrrolo[3,2-c]pyridin-4-one] | 0.621 µM | 0.0336 µM | – | 0.000547 µM | – | 17.2 µM | – | 0.000964 µM | 0.0162 µM | 0.000332 µM
3 | O=C1NCCc2[nH]c(-c3ccncc3OCC3COCCO3)c(Nc3cccc(F)c3CC(F)F)c21 (centres unmarked) [Example 40, 3-[2-(2,2-difluoroethyl)-3-fluoro-anilino]-2-[3-(1,4-dioxan-2-ylmethoxy)-4-pyridyl]-1,5,6,7-tetrahydropyrrolo[3,2-c]pyridin-4-one] | 0.867 µM | 0.119 µM | – | 0.000115 µM | – | 8.62 µM | – | – | – | –
4 | CN1CCO[C@H](COc2cnccc2-c2[nH]c3c(c2Nc2cccc(F)c2CC(F)F)C(=O)NCC3)C1 [Example 41, 3-[2-(2,2-difluoroethyl)-3-fluoroanilino]-2-(3-{[(2S)-4-methylmorpholin-2-yl]methoxy}pyridin-4-yl)-1,5,6,7-tetrahydro-4H-pyrrolo[3,2-c]pyridin-4-one] | 0.695 µM | 0.0775 µM | – | 0.000291 µM | – | > 20 µM | – | – | – | –
5 | Cc1c(Cl)cccc1Nc1c(-c2ccncc2OC[C@H]2COCCN2C)[nH]c2c1C(=O)NCC2 [Example 43, 3-(3-chloro-2-methylanilino)-2-(3-{[(3R)-4-methylmorpholin-3-yl]methoxy}pyridin-4-yl)-1,5,6,7-tetrahydro-4H-pyrrolo[3,2-c]pyridin-4-one] | 1.25 µM | 0.0605 µM | – | 0.000225 µM | – | 2.41 µM | – | – | – | –
6 | CCc1c(Cl)cccc1Nc1c(-c2ccncc2OCC2COCCO2)[nH]c2c1C(=O)NCC2 (centres unmarked) [Example 52, 3-(3-chloro-2-ethyl-anilino)-2-[3-(1,4-dioxan-2-ylmethoxy)-4-pyridyl]-1,5,6,7-tetrahydropyrrolo[3,2-c]pyridin-4-one] | 0.547 µM | 0.0134 µM | – | 0.000226 µM | – | 0.729 µM | – | – | – | –
7 | CCc1c(Cl)cccc1Nc1c(-c2ccncc2OC[C@H]2CN(C)CCO2)[nH]c2c1C(=O)NCC2 [Example 55, 3-(3-chloro-2-ethylanilino)-2-(3-{[(2R)-4-methylmorpholin-2-yl]methoxy}pyridin-4-yl)-1,5,6,7-tetrahydro-4H-pyrrolo[3,2-c]pyridin-4-one] | 1.31 µM | 0.124 µM | – | 0.000257 µM | – | 7.59 µM | – | – | – | –
8 | Cc1c(F)cccc1Nc1c(-c2ccncc2OCC2CN(C)CCO2)[nH]c2c1C(=O)NCC2 (centres unmarked) [Example 62, 3-(3-fluoro-2-methylanilino)-2-(3-{[4-methylmorpholin-2-yl]methoxy}pyridin-4-yl)-1,5,6,7-tetrahydro-4H-pyrrolo[3,2-c]pyridin-4-one] | 0.697 µM | 0.0267 µM | – | 0.000237 µM | – | > 20 µM | – | – | – | –
9 | CCc1c(F)cccc1Nc1c(-c2ccncc2OCC2COCCO2)[nH]c2c1C(=O)NCC2 (centres unmarked) [Example 65, 2-(3-{[1,4-dioxan-2-yl]methoxy}pyridin-4-yl)-3-(2-ethyl-3-fluoroanilino)-1,5,6,7-tetrahydro-4H-pyrrolo[3,2-c]pyridin-4-one] | 0.287 µM | 0.0134 µM | – | 0.000136 µM | – | 3.58 µM | – | – | – | –
10 | CCc1c(F)cccc1Nc1c(-c2ccncc2OCC2COC(C)(C)CO2)[nH]c2c1C(=O)NCC2 (centres unmarked) [Example 68, 2-(3-{[5,5-dimethyl-1,4-dioxan-2-yl]methoxy}pyridin-4-yl)-3-(2-ethyl-3-fluoroanilino)-1,5,6,7-tetrahydro-4H-pyrrolo[3,2-c]pyridin-4-one] | 0.644 µM | 0.0373 µM | – | 0.000267 µM | – | > 20 µM | – | – | – | –
11 | COc1c(Cl)cccc1Nc1c(-c2ccncc2OC(C)C2CN(C)CCO2)[nH]c2c1C(=O)NCC2 (centres unmarked) [Example 71, 3-(3-chloro-2-methoxyanilino)-2-[3-({1-[4-methylmorpholin-2-yl]ethyl}oxy)pyridin-4-yl]-1,5,6,7-tetrahydro-4H-pyrrolo[3,2-c]pyridin-4-one] | 1.42 µM | 0.132 µM | – | 0.000405 µM | – | > 20 µM | – | – | – | –
